Assay results from US20240174680A1, “CDK2 INHIBITORS AND METHODS OF USING THE SAME” (Cedilla Therapeutics, Inc., priority 2021, published 2024).

Target: CDK2/Cyclin E1 (Homo sapiens, UniProt P24941)
Experiment: CDK2/Cyclin E1 Caliper LabChip EZ Reader mobility shift assay
Assay type: biochemical
Design: purchased Eurofins 14-475
Settings: read-out: Caliper Assay (CDK2/CCNE1): IC50
How it was run: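 Mobility-shift kinase assay: compound titrations preincubated 30 min with enzyme and ATP, reaction started with 5-FAM-QSPKKG-CONH2 peptide. Final 2.5 nM CDK2/Cyclin E1, 100 μM ATP, 1.5 μM peptide, HEPES pH 7.5; stopped with EDTA after 100 min. IC50 from four-parameter fit of normalized conversion ratio.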

IC50 [nM] | SMILES
> 10000 | CNC(=O)[C@@H](NC(=O)[C@@H]1CN(C(=O)c2nccs2)CC12CN(C(=O)[C@H]1CC1(C)C)C2)[C@@H](C)OCC1CCCCC1 [I-169]
> 10000 | Cc1ccc(CNC(=O)[C@@H]2CN(C(=O)c3cnn(Cc4ccccc4)c3)CC23CN(C(=O)C(C)(C)C2CC2)C3)nn1 [I-387, (S)-6-(1-benzyl-1H-pyrazole-4-carbonyl)-2-(2-cyclopropyl-2-methylpropanoyl)-N-((6-methylpyridazin-3-yl)methyl)-2,6-diazaspiro[3.4]octane-8-carboxamide]
> 10000 | CN1CC[C@@H](NC(=O)[C@@H]2CN(C(=O)c3cnn(Cc4ccccc4)c3)CC23CN(C(=O)[C@H]2CC2(C)C)C3)C1=O [I-258]
1000 to 10000 | CC1(C)C[C@@H]1C(=O)N1CC2(CN(C(=O)c3cnn(Cc4ccccc4)c3)C[C@H]2C(=O)NCc2nc3ccccc3o2)C1 [I-230]
100 to 1000 | C[C@@H](OCc1ccccc1)[C@H](NC(=O)C1CN(C(=O)c2cnn(Cc3ccccc3)c2)CC12CN(C(=O)[C@H]1CC1(C)C)C2)C(=O)NCCN (some centres unmarked) [I-31]
≤ 10 | C[C@@H](OCC12CCC(CC1)OC2)[C@H](NC(=O)[C@@H]1CN(C(=O)c2cncs2)CC12CN(C(=O)[C@H]1CC1(C)C)C2)C(=O)N1CCC2(CC1)CC2 [I-458]
100 to 1000 | C[C@@H](OCc1ccccc1)[C@H](NC(=O)C1CN(C(=O)c2cnn(Cc3ccccc3)c2)CC12CN(C(=O)[C@H]1CC1(C)C)C2)C(=O)NCCC(=O)O (some centres unmarked) [I-29]
≤ 10 | C[C@@H](OCC1CCCCC1)[C@H](NC(=O)[C@@H]1CN(C(=O)c2cnn(Cc3ccccc3)c2)CC12CN(C(=O)[C@H]1CC1(C)C)C2)C(=O)O [I-477]

Continued, compound first:

SMILES | IC50 [nM]
CNC(=O)[C@@H](NC(=O)[C@H]1CN(C(=O)c2cnn(Cc3ccccc3)c2)CC12CN(C(=O)C1(CCOC)CC1)C2)[C@@H](C)OCc1ccccc1 [I-102B] | > 10000
CNC(=O)[C@@H](NC(=O)[C@@H]1CN(C(=O)c2cncs2)CC12CN(C(=O)C(C)(C)C)C2)[C@@H](C)OCC1CCCCC1 [I-186A] | 10 to 100
CNC(=O)[C@@H](NC(=O)[C@H]1CN(Cc2cn[nH]c2)CC12CN(C(=O)[C@H]1CC1(C)C)C2)[C@@H](C)OCc1ccccc1 [I-50B] | > 10000
CNC(=O)[C@@H](NC(=O)[C@@H]1CN(C(=O)c2cnn(Cc3ccccc3)c2)CC12CN(C(=O)CC(C)C)C2)[C@@H](C)OCc1ccccc1 [I-69A] | 100 to 1000
CC1(C)C[C@@H]1C(=O)N1CC2(CN(C(=O)c3cnn(Cc4ccccc4)c3)C[C@H]2C(=O)NC2CCN(C(=O)c3ccccc3)CC2)C1 [I-61A] | 1000 to 10000
CNC(=O)[C@@H](NC(=O)[C@@H]1CN(C(=O)c2cnn(Cc3ccccc3)c2)CC12CN(C(=O)[C@H]1CC1(C)C)C2)C(C)(C)SCc1ccccc1 [I-171A, (S)-6-(1-benzyl-1H-pyrazole-4-carbonyl)-N—((R)-3-(benzylthio)-3-methyl-1-(methylamino)-1-oxobutan-2-yl)-2-((S)-2,2-dimethylcyclopropane-1-carbonyl)-2,6-diazaspiro[3.4]octane-8-carboxamide] | 100 to 1000
CC1(C)C[C@@H]1C(=O)N1CC2(CN(C(=O)c3cnn(Cc4ccccc4)c3)C[C@@H]2C(=O)N2CCCC(Cc3ccccc3)C2)C1 (some centres unmarked) [I-91B] | > 10000
CNC(=O)[C@@H](NC(=O)[C@H]1CN(C(=O)c2cnn(Cc3ccccc3)c2)CC12CN(C(=O)c1ccccc1)C2)[C@@H](C)OCc1ccccc1 [I-26B] | > 10000
C[C@@H](OCC1CCC(F)(F)CC1)[C@H](NC(=O)[C@H]1CN(C(=O)c2cn[nH]c2)CC12CN(C(=O)[C@H]1CC1(C)C)C2)C(=O)N1CCC(F)(F)CC1 [I-228B] | 100 to 1000
CC1(C)C[C@@H]1C(=O)N1CC2(CN(C(=O)c3cnn(Cc4ccccc4)c3)C[C@H]2C(=O)N2CCC(Cc3ccccc3)CC2)C1 [I-58A] | 100 to 1000
CO[C@H]1COCC[C@@H]1NC(=O)[C@H]1CN(C(=O)c2cnn(Cc3ccccc3)c2)CC12CN(C(=O)[C@H]1CC1(C)C)C2 [I-131B] | > 10000
CNC(=O)[C@@H](NC(=O)[C@@H]1CN(C(=O)c2cnc(COC)s2)CC12CN(C(=O)[C@H]1CC1(C)C)C2)[C@@H](C)OCC1CCCCC1 [I-145A] | 10 to 100
